From the CheMixHub viscosity set
Values joined by “and” are separate entries in the source; they are usually repeats but may differ in a detail not shown here. Equal entries are not always repeated.

Test: xn = mol fraction of the nth substance listed

C1CCCCC1 + CCC(C)O
viscosity [mPa·s], 101.33 kPa
Details	298.15 K	303.15 K	313.15 K
x1 = 0.0998	2.334	–	1.442
x1 = 0.2045	1.841	–	1.19
x1 = 0.3002	1.524	–	1.023
x1 = 0.4007	1.285	–	0.8968
x1 = 0.4995	1.116	–	0.8098
x1 = 0.6	1.001	–	0.7497
x1 = 0.7028	0.9323	–	0.7106
x1 = 0.8005	0.8895	–	0.6896
x1 = 0.9036	0.872	–	0.6801
x2 = 0.1002	–	0.8606	–
x2 = 0.1978	–	0.9196	–
x2 = 0.3031	–	1.004	–
x2 = 0.4019	–	1.107	–
x2 = 0.4961	–	1.244	–
x2 = 0.5974	–	1.435	–
x2 = 0.695	–	1.68	–
x2 = 0.799	–	1.996	–
x2 = 0.8924	–	2.321	–

COC(C)=O + Cc1cccc(C)c1
viscosity [mPa·s], 101 kPa
Details	298.15 K	308.15 K
x1 = 0.0409	0.565	0.515
x1 = 0.151	0.524	0.484
x1 = 0.2488	0.493	0.46
x1 = 0.3516	0.466	0.438
x1 = 0.4423	0.446	0.421
x1 = 0.4928	0.436	0.412
x1 = 0.5514	0.426	0.403
x1 = 0.6505	0.412	0.388
x1 = 0.7498	0.4	0.376
x1 = 0.8506	0.392	0.364
x1 = 0.9429	0.386	0.356

C1CCCCC1 + CCCCCC
Details	viscosity [mPa·s]
298.1 K, 101 kPa, x1 = 0.2	0.356
298.1 K, 101 kPa, x1 = 0.4	0.409
298.1 K, 101 kPa, x1 = 0.5	0.442
298.1 K, 101 kPa, x1 = 0.6	0.484
298.1 K, 101 kPa, x1 = 0.8	0.609
298.15 K, 100 kPa, x1 = 0.201	0.34
298.15 K, 100 kPa, x1 = 0.4	0.4016
298.15 K, 100 kPa, x1 = 0.6	0.4934
298.15 K, 100 kPa, x1 = 0.8	0.6328
298.15 K, 101 kPa, x2 = 0.0684	0.791
298.15 K, 101 kPa, x2 = 0.1504	0.6857
298.15 K, 101 kPa, x2 = 0.212	0.6386
298.15 K, 101 kPa, x2 = 0.2942	0.5608
298.15 K, 101 kPa, x2 = 0.3691	0.5182
298.15 K, 101 kPa, x2 = 0.4469	0.4531
298.15 K, 101 kPa, x2 = 0.5365	0.4026
298.15 K, 101 kPa, x2 = 0.5903	0.3809
298.15 K, 101 kPa, x2 = 0.6702	0.3605
298.15 K, 101 kPa, x2 = 0.7634	0.3153
298.15 K, 101.33 kPa, x1 = 0.0907	0.3272
298.15 K, 101.33 kPa, x1 = 0.0958	0.317
298.15 K, 101.33 kPa, x1 = 0.1714	0.3405
298.15 K, 101.33 kPa, x1 = 0.1981	0.341
298.15 K, 101.33 kPa, x1 = 0.274	0.3831
298.15 K, 101.33 kPa, x1 = 0.2742	0.367
298.15 K, 101.33 kPa, x1 = 0.2966	0.367
298.15 K, 101.33 kPa, x1 = 0.3645	0.4001
298.15 K, 101.33 kPa, x1 = 0.3986	0.397
298.15 K, 101.33 kPa, x1 = 0.4469	0.4276
298.15 K, 101.33 kPa, x1 = 0.4498	0.4234
298.15 K, 101.33 kPa, x1 = 0.4972	0.436
298.15 K, 101.33 kPa, x1 = 0.533	0.4643
298.15 K, 101.33 kPa, x1 = 0.5873	0.4846
298.15 K, 101.33 kPa, x1 = 0.5972	0.484
298.15 K, 101.33 kPa, x1 = 0.6062	0.5023
298.15 K, 101.33 kPa, x1 = 0.6783	0.5445
298.15 K, 101.33 kPa, x1 = 0.6988	0.544
298.15 K, 101.33 kPa, x1 = 0.752	0.5887
298.15 K, 101.33 kPa, x1 = 0.7542	0.5997
298.15 K, 101.33 kPa, x1 = 0.7993	0.623
298.15 K, 101.33 kPa, x1 = 0.8297	0.6872
298.15 K, 101.33 kPa, x1 = 0.8977	0.73
298.15 K, 101.33 kPa, x1 = 0.9016	0.7533
298.15 K, 101.33 kPa, x1 = 0.9034	0.7347
298.15 K, 101.33 kPa, x1 = 0.9721	0.8499
303.15 K, 101 kPa, x1 = 0.1086	0.2975
303.15 K, 101 kPa, x1 = 0.2169	0.3225
303.15 K, 101 kPa, x1 = 0.3006	0.3441
303.15 K, 101 kPa, x1 = 0.4057	0.3765
303.15 K, 101 kPa, x1 = 0.5025	0.4141
303.15 K, 101 kPa, x1 = 0.6021	0.4621
303.15 K, 101 kPa, x1 = 0.7058	0.5242
303.15 K, 101 kPa, x1 = 0.7982	0.5925
303.15 K, 101 kPa, x1 = 0.8984	0.6941
303.15 K, 101.33 kPa, x1 = 0.0958	0.301
303.15 K, 101.33 kPa, x1 = 0.1981	0.324
303.15 K, 101.33 kPa, x1 = 0.2966	0.349
303.15 K, 101.33 kPa, x1 = 0.3986	0.378
303.15 K, 101.33 kPa, x1 = 0.4972	0.412
303.15 K, 101.33 kPa, x1 = 0.5972	0.454
303.15 K, 101.33 kPa, x1 = 0.6988	0.511
303.15 K, 101.33 kPa, x1 = 0.7993	0.58
303.15 K, 101.33 kPa, x1 = 0.8977	0.672
308.15 K, 101.33 kPa, x1 = 0.0958	0.288
308.15 K, 101.33 kPa, x1 = 0.1981	0.307
308.15 K, 101.33 kPa, x1 = 0.2966	0.33
308.15 K, 101.33 kPa, x1 = 0.3986	0.357
308.15 K, 101.33 kPa, x1 = 0.4972	0.389
308.15 K, 101.33 kPa, x1 = 0.5972	0.428
308.15 K, 101.33 kPa, x1 = 0.6988	0.479
308.15 K, 101.33 kPa, x1 = 0.7993	0.543
308.15 K, 101.33 kPa, x1 = 0.8977	0.623
323.15 K, 100 kPa, x1 = 0.201	0.266
323.15 K, 100 kPa, x1 = 0.4	0.309
323.15 K, 100 kPa, x1 = 0.6	0.3703
323.15 K, 100 kPa, x1 = 0.8	0.4573

COCCOC + CC1COC(=O)O1
viscosity
Details	298.15 K	308.15 K	318.15 K
101 kPa, x1 = 0.2	1.617 mPa·s and 1.616 mPa·s	–	–
101 kPa, x1 = 0.45	1.009 mPa·s and 1.007 mPa·s	–	–
101 kPa, x1 = 0.7	0.66 mPa·s and 0.659 mPa·s	–	–
101.33 kPa, x1 = 0.0493	2.227 mPa·s	1.833 mPa·s	1.561 mPa·s
101.33 kPa, x1 = 0.0999	1.96 mPa·s	1.659 mPa·s	1.417 mPa·s
101.33 kPa, x1 = 0.1524	1.752 mPa·s	1.495 mPa·s	1.277 mPa·s
101.33 kPa, x1 = 0.1867	1.637 mPa·s	1.402 mPa·s	–
101.33 kPa, x1 = 0.2298	1.507 mPa·s	1.297 mPa·s	1.113 mPa·s
101.33 kPa, x1 = 0.2769	–	1.183 mPa·s	–
101.33 kPa, x1 = 0.3128	1.289 mPa·s	–	0.9676 mPa·s
101.33 kPa, x1 = 0.3708	1.162 mPa·s	0.9973 mPa·s	0.881 mPa·s
101.33 kPa, x1 = 0.4036	1.097 mPa·s	0.9447 mPa·s	0.8272 mPa·s
101.33 kPa, x1 = 0.4686	0.9699 mPa·s	–	–
101.33 kPa, x1 = 0.5193	0.8882 mPa·s	0.7779 mPa·s	0.6827 mPa·s
101.33 kPa, x1 = 0.5704	–	0.7178 mPa·s	0.6389 mPa·s
101.33 kPa, x1 = 0.6382	0.7272 mPa·s	–	0.5728 mPa·s
101.33 kPa, x1 = 0.6767	0.6885 mPa·s	0.6105 mPa·s	0.5449 mPa·s
101.33 kPa, x1 = 0.7589	0.6047 mPa·s	–	0.4782 mPa·s
101.33 kPa, x1 = 0.8103	0.5589 mPa·s	0.5052 mPa·s	0.4571 mPa·s
101.33 kPa, x1 = 0.8432	0.5429 mPa·s	0.4728 mPa·s	0.4376 mPa·s
101.33 kPa, x1 = 0.9035	0.4872 mPa·s	0.4381 mPa·s	0.397 mPa·s
101.33 kPa, x1 = 0.9483	0.4564 mPa·s	0.4073 mPa·s	0.375 mPa·s
101.33 kPa, x2 = 0.2217	0.5911 mPa·s	0.5265 mPa·s	0.4711 mPa·s
101.33 kPa, x2 = 0.3749	0.7628 mPa·s	0.6716 mPa·s	0.5956 mPa·s
101.33 kPa, x2 = 0.5841	1.099 mPa·s	0.9453 mPa·s	0.8342 mPa·s
101.33 kPa, x2 = 0.7836	1.594 mPa·s	1.356 mPa·s	1.168 mPa·s

COC(C)=O + ClC(Cl)Cl
303.15 K, 101.3 kPa
Details	viscosity [mPa·s]
x1 = 0.1026	0.5228
x1 = 0.2027	0.525
x1 = 0.3012	0.5197
x1 = 0.4009	0.5018
x1 = 0.5028	0.4782
x1 = 0.6033	0.4508
x1 = 0.7158	0.4176
x1 = 0.813	0.3893
x1 = 0.8983	0.3686

COc1ccccc1N + CCCC(C)=O
viscosity [mPa·s], 100 kPa
Details	x1 = 0.0932	x1 = 0.1824	x1 = 0.2643	x1 = 0.3512	x1 = 0.4494	x1 = 0.5391	x1 = 0.654	x1 = 0.7787	x1 = 0.8784
303.15 K	0.887	1.312	1.695	2.099	2.548	2.952	3.46	3.999	4.421
308.15 K	0.858	1.257	1.616	1.99	2.406	2.776	3.245	3.741	4.128
313.15 K	0.829	1.202	1.537	1.879	2.262	2.598	3.028	3.481	3.832
